In brackets after ≈: the same amount, converted by molar mass.
What follows are compounds tested on Staphylococcus epidermidis (assay: Antibacterial activity against Staphylococcus epidermidis ATCC 12228 assessed as inhibition of visible growth of bacteria incubated for 24 hrs by CLSI protocol based broth-dilution method).
Format: functional

MIC [µg/mL]	SMILES
1 (≈ 1.55 µM)	C=C[C@]1(C)C[C@@H](OC(=O)CSc2ccccc2NC(=O)c2ccc3c(c2)B(O)OC3)[C@]2(C)[C@H](C)CC[C@]3(CCC(=O)[C@H]32)[C@@H](C)[C@@H]1O
0.063 (≈ 0.0967 µM)	C=C[C@]1(C)C[C@@H](OC(=O)CSc2cccc(NC(=O)c3ccc(B(O)O)cc3F)c2)[C@]2(C)[C@H](C)CC[C@]3(CCC(=O)[C@H]32)[C@@H](C)[C@@H]1O
0.063 (≈ 0.088 µM)	C=C[C@]1(C)C[C@@H](OC(=O)CSc2cccc(NC(=O)c3cccc(B4OC(C)(C)C(C)(C)O4)c3)c2)[C@]2(C)[C@H](C)CC[C@]3(CCC(=O)[C@H]32)[C@@H](C)[C@@H]1O
16 (≈ 24.6 µM)	C=C[C@]1(C)C[C@@H](OC(=O)CSc2ccc(NC(=O)c3ccc(F)c(B(O)O)c3)cc2)[C@]2(C)[C@H](C)CC[C@]3(CCC(=O)[C@H]32)[C@@H](C)[C@@H]1O

These compounds were tested on Staphylococcus aureus (assay: Antibacterial activity against Staphylococcus aureus ATCC 29213 assessed as inhibition of visible growth of bacteria incubated for 24 hrs by CLSI protocol based broth-dilution method).
Format: functional

MIC [µg/mL]	SMILES
0.063 (≈ 0.0976 µM)	C=C[C@]1(C)C[C@@H](OC(=O)CSc2ccccc2NC(=O)c2ccc3c(c2)B(O)OC3)[C@]2(C)[C@H](C)CC[C@]3(CCC(=O)[C@H]32)[C@@H](C)[C@@H]1O
0.063 (≈ 0.0967 µM)	C=C[C@]1(C)C[C@@H](OC(=O)CSc2cccc(NC(=O)c3ccc(B(O)O)cc3F)c2)[C@]2(C)[C@H](C)CC[C@]3(CCC(=O)[C@H]32)[C@@H](C)[C@@H]1O
0.063 (≈ 0.088 µM)	C=C[C@]1(C)C[C@@H](OC(=O)CSc2cccc(NC(=O)c3cccc(B4OC(C)(C)C(C)(C)O4)c3)c2)[C@]2(C)[C@H](C)CC[C@]3(CCC(=O)[C@H]32)[C@@H](C)[C@@H]1O
0.063 (≈ 0.0967 µM)	C=C[C@]1(C)C[C@@H](OC(=O)CSc2ccc(NC(=O)c3ccc(F)c(B(O)O)c3)cc2)[C@]2(C)[C@H](C)CC[C@]3(CCC(=O)[C@H]32)[C@@H](C)[C@@H]1O
